From the supplement of paper PMC10307832

How the values were obtained:
Test in all cases: relative viability (nuclei count vs DMSO), 5 days (fraction); higher = more cells survive
Tanzisertib + Navitoclax = compound: O[C@H]1CC[C@H](Nc2ncc3nc(Nc4c(F)cc(F)cc4F)n([C@H]4CCOC4)c3n2)CC1 [Tanzisertib] + CC1(C)CCC(c2ccc(Cl)cc2)=C(CN2CCN(c3ccc(C(=O)NS(=O)(=O)c4ccc(N[C@H](CCN5CCOCC5)CSc5ccccc5)c(S(=O)(=O)C(F)(F)F)c4)cc3)CC2)C1 [Navitoclax] (partner 0.5 µM)
Method in brief: (§1)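 Values are medians from duplicate plates. Each reflects relative viability, defined as the nuclei count of treated wells over that of vehicle wells. Lung cancer cell lines in 1536-well plates were pin-tool dosed one day after seeding with one drug alone or with a fixed anchor-drug dose plus five library-drug doses (not always all listed) in √10 steps, then fixed, stained and imaged at 4× after 5 days.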

Tanzisertib + Linsitinib = compound: O[C@H]1CC[C@H](Nc2ncc3nc(Nc4c(F)cc(F)cc4F)n([C@H]4CCOC4)c3n2)CC1 [Tanzisertib] + C[C@]1(O)C[C@@H](c2nc(-c3ccc4ccc(-c5ccccc5)nc4c3)c3c(N)nccn32)C1 [Linsitinib] (partner 1 µM)
Method in brief: as §1

[1] = compound: C1CNCCC1C2=CC(=NN2)C3=CC=NC=C3 + CS(=O)(=O)N1CCN(Cc2cc3nc(-c4cccc5[nH]ncc45)nc(N4CCOCC4)c3s2)CC1 [Pictilisib] (partner 1 µM)
Method in brief: as §1

[2] = compound: C1CNCCC1C2=CC(=NN2)C3=CC=NC=C3 + CC(=O)c1c(C)c2cnc(Nc3ccc(N4CCNCC4)cn3)nc2n(C2CCCC2)c1=O [Palbociclib] (partner 0.5 µM)
Method in brief: as §1

| Cell Line | relative viability (Tanzisertib + Navitoclax; first compound 0.08 µM) | relative viability (Tanzisertib + Navitoclax; first compound 0.253 µM) | relative viability (Tanzisertib + Navitoclax; first compound 0.8 µM) | relative viability (Tanzisertib + Navitoclax; first compound 2.53 µM) | relative viability (Tanzisertib + Navitoclax; first compound 8 µM) | relative viability (Tanzisertib + Linsitinib; first compound 0.08 µM) | relative viability (Tanzisertib + Linsitinib; first compound 0.253 µM) | relative viability (Tanzisertib + Linsitinib; first compound 0.8 µM) | relative viability (Tanzisertib + Linsitinib; first compound 2.53 µM) | relative viability (Tanzisertib + Linsitinib; first compound 8 µM) | relative viability ([1]; first compound 0.08 µM) | relative viability ([1]; first compound 0.8 µM) | relative viability ([1]; first compound 2.53 µM) | relative viability ([1]; first compound 8 µM) | relative viability ([2]; first compound 0.08 µM) | relative viability ([2]; first compound 0.8 µM) | relative viability ([2]; first compound 2.53 µM) | relative viability ([2]; first compound 8 µM) |
| --- | --- | --- | --- | --- | --- | --- | --- | --- | --- | --- | --- | --- | --- | --- | --- | --- | --- | --- |
| 201T | 1.19 | 1.18 | 1.23 | 1.18 | 1.18 | 1.02 | 1.01 | 0.969 | 1.01 | 0.956 | 0.724 | 0.664 | 0.7 | 0.681 | 0.376 | 0.353 | 0.355 | 0.362 |
| PC-14 | 1.03 | 1.05 | 0.934 | 1.02 | 0.736 | 1 | 0.987 | 0.885 | 0.942 | 0.572 | 0.716 | 0.763 | 0.842 | 0.661 | 0.531 | 0.585 | 0.613 | 0.468 |
| NCI-H727 | 0.377 | 0.354 | 0.481 | 0.477 | 0.502 | 0.358 | 0.32 | 0.322 | 0.38 | 0.249 | 0.373 | 0.407 | 0.505 | 0.575 | 0.627 | 0.685 | 0.66 | 0.646 |
| NCI-H1792 | 0.75 | 0.777 | 0.674 | 0.553 | 0.598 | 0.552 | 0.562 | 0.623 | 0.497 | 0.478 | 0.223 | 0.246 | 0.345 | 0.304 | 0.636 | 0.702 | 0.718 | 0.588 |
| COR-L23 | 1.15 | 1.05 | 0.979 | 1.24 | 1.03 | 1.09 | 0.874 | 0.896 | 1.02 | 0.934 | 0.824 | 0.903 | 0.924 | 0.832 | 0.307 | 0.278 | 0.29 | 0.291 |
| HOP-62 | 0.978 | 0.994 | 0.819 | 1.11 | 1.26 | 0.924 | 1.14 | 1.13 | 1.04 | 0.918 | 0.654 | 0.816 | 0.791 | 0.717 | 0.34 | 0.489 | 0.463 | 0.468 |
| NCI-H1915 | 0.793 | 0.786 | 0.78 | 0.805 | 0.83 | 1.07 | 1.14 | 1.08 | 1.01 | 1.11 | 1.03 | 0.885 | 0.965 | 0.906 | 0.502 | 0.521 | 0.493 | 0.529 |
| BEN | 0.0685 | 0.0675 | 0.0797 | 0.072 | 0.0632 | 0.875 | 0.916 | 1.11 | 0.984 | 0.904 | 0.518 | 0.587 | 0.555 | 0.722 | 0.447 | 0.47 | 0.45 | 0.433 |
| NCI-H1437 | 1.14 | 1.1 | 1.08 | 1.13 | 1.08 | 1.14 | 0.981 | 1.11 | 1.13 | 0.971 | 0.443 | 0.485 | 0.45 | 0.528 | 0.356 | 0.335 | 0.352 | 0.368 |
